Experiments:
ACE = biological target: T1, ACE (Rattus norvegicus, UniProt P47820); test: ACE inhibition activity using rat lung (Experiment A-2); type: biochemical; conditions: rat lung membrane fraction, borate buffer pH 8.3
T1 construct: membrane fraction prepared from rat lung; from tissue; host or cells: rat lung, membrane fraction (method of Wu-Wong et al.)
T1 sequence (P47820 36-1313): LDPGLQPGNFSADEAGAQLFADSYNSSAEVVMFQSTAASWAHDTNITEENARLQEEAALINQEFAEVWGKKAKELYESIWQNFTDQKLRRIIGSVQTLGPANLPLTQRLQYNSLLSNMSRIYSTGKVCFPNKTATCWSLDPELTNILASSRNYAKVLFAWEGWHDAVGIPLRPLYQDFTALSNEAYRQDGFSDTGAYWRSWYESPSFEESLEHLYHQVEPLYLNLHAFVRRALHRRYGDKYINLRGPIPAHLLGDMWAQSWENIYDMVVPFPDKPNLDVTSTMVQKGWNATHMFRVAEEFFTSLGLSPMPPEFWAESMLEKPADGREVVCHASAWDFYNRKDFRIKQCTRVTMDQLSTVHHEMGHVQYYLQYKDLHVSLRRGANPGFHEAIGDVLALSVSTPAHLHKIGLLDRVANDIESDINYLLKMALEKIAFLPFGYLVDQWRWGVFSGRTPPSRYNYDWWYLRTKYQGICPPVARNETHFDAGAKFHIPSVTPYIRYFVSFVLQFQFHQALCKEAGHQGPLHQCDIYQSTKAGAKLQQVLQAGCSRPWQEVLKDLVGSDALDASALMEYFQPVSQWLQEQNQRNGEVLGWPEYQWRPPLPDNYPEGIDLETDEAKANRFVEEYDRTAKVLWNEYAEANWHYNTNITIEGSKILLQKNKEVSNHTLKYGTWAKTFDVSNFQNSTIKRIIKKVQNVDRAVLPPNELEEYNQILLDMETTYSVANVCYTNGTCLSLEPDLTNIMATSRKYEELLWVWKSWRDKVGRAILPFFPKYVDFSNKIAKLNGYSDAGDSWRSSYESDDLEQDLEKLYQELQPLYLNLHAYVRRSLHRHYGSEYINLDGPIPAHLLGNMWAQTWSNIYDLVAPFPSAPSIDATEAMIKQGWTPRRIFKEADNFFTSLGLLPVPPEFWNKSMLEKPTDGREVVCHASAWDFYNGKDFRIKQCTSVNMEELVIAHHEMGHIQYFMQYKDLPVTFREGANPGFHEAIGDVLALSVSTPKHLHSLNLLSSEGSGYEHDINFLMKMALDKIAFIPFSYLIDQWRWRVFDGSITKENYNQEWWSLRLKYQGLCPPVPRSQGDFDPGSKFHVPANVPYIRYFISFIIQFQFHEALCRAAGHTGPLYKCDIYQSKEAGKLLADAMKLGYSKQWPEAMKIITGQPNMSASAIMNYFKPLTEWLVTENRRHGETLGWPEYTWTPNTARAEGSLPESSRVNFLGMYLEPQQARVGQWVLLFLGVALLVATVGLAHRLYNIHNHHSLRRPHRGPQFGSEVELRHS
Description: The ACE inhibition activity was determined by using a membrane fraction prepared from rat lung in accordance with the method of Wu-Wong et al. (Characterization of Endthelin Converting Enzyme in Rat Lung., Junshyum R. Wu-Wong, Gerald, P. Budzik, Edward M. Devine and Terry J. Opgenorth, Biochem. Biophys. Res. Commun., 1990, 171, 1291-1296.).
The ACE activity was determined with the use of a modification (modified to a borate buffer, pH 8.3) of the method of Cushman and Cheung (Spectrophotometric Assay and Properties of the Angiotensin-Converting Enzyme of Rabbit Lung., Cushman, D. W. and Cheung H. S., 1971, 20, 1637-1648.).
In the presence of ACE, the hippurate liberated from hippuryl-histidyl-leucine (Hippuryl-His-Leu (PeptideInstitute Inc., Japan)) was extracted with ethyl acetate and then the absorbance was measured at a wavelength of 228 nm.
With respect to the ACE inhibition activity, the inhibitor was added to the experimental system as described above in such a manner as to give the final concentrations of 1, 3, 10, 30, 100, 300 and 1000 nM, an inhibition curve was prepared, and then the concentration at which 50% inhibition was achieved was taken as IC50.

[1] = biological target: T2, vasopressin (V2) receptor (Rattus norvegicus, UniProt Q00788); test: V2 receptor binding assay, rat kidney membrane (Experiment E-3); conditions: [3H]-Arg-vasopressin, pH 7.4
T2 construct: rat kidney (V2); from tissue; host or cells: rat kidney membranes
T2 sequence (Q00788 whole entry): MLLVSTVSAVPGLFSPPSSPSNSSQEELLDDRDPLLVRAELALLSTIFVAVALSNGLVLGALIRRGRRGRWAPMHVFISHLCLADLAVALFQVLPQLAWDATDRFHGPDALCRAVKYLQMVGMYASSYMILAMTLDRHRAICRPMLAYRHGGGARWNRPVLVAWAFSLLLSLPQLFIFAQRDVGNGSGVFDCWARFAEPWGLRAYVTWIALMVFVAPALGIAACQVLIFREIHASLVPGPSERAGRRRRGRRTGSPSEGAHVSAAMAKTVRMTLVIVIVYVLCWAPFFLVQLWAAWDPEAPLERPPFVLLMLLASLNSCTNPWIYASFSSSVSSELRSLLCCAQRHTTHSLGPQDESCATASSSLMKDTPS
Description: (§1) Membrane specimens of rat liver (V1) and rat kidney (V2) were used. 100,000 counts (3.69 nM) of [^3 H]-Arg-vasopressin, 25 μg (1 mg protein/ml) of each membrane specimen and a test medicament (10^-7 to 10^-5 M) were incubated in a total volume of 250 μl of an assay buffer (pH=7.4) containing 10 mM of MgCl2, 2 mM of EGTA and 20 mM of HEPES at 4° C. over day and night. Then, the incubation was washed with 5-ml portions of the buffer 5 times to thereby separate the membrane specimen binding to vasopressin followed by filtration with the use of a glass filter (GF/F). This glass filter was dried for about 3 hours and mixed with a cocktail for liquid scintillation (10 ml, ACSII). After allowing to stand overnight, the amount of the [^3 H]-Arg-vasopressin binding to the membrane was determined with a liquid scintillation counter and the inhibition ratio was calculated in accordance with the following formula: […]
(§2) B1; the amount of [^3 H]-Arg-vasopressin binding to the membrane in the presence of excessive vasopressin (10 μM)
(§3) C0; the amount of [^3 H]-Arg-vasopressin binding to the membrane in the absence of the test medicament and
(§4) C1; the amount of [^3 H]-Arg-vasopressin binding to the membrane in the presence of both the test medicament in a known amount and [^3 H]-Arg-vasopressin. […]

[2] = biological target: T3, vasopressin (V1) receptor (Rattus norvegicus, UniProt P30560); test: V1 receptor binding assay, rat liver membrane (Experiment F-2); conditions: [3H]-Arg-vasopressin, pH 7.4
T3 construct: Membrane specimens of rat liver (V1); from tissue; host or cells: rat liver membranes
T3 sequence (P30560 whole entry): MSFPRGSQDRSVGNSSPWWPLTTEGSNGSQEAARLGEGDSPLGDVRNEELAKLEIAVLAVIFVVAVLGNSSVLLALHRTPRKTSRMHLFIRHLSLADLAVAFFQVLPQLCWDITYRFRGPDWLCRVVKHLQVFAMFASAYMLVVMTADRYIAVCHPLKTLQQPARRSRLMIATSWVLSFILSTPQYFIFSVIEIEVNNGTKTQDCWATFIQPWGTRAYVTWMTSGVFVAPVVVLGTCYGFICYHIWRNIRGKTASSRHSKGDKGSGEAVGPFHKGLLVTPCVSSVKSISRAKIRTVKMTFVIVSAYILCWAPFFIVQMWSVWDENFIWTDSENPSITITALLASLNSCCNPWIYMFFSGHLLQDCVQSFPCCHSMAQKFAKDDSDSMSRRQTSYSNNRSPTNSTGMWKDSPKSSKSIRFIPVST
Description: as §1, with “in” for “in a total volume of”, “μl in total” for “μl”
as §2, §3, §4

SMILES | IC50 (ACE) | also measured
CC[C@H](C)[C@H](S)C(=O)NC1CCc2ccccc2N(CC(=O)O)C1=O (stereo partly drawn) [Example A-9, 1-Carboxymethyl-3-[(2S,3S)-2-mercapto-3-methylvarelylamino]-1H-[1]benzazepin-2-one] | 13 nM | 
CC[C@H](C)[C@H](S)C(=O)N[C@H]1CCc2ccccc2N(CC(=O)O)C1=O [Example A-11, (S)-3-[(2S,3S)-2-Mercapto-3-methylvarelylamino]-1-carboxymethyl-2,3,4,5-tetrahydro-1H-[1]benzazepin-2-one] | 11 nM | 
CC(C)[C@H](S)C(=O)N[C@H]1Cc2ccc(-c3ccccc3)cc2[C@H]2CCC[C@@H](C(=O)O)N2C1=O [Example E-10, [4S-[4α,7α(R*),12bβ]]-7-[(S)-2-Mercapto-3-methylbutyrylamino]-6-oxo-11-phenyl-1,2,3,4,6,7,8,12b-octahydropyrido[2,1-a][2]benzazepine-4-carboxylic acid] |  | IC50 [1]: 4490 nM
O=C(N[C@H]1CCC[C@H]2SC[C@@H](C(=O)O)N2C1=O)[C@@H](S)Cc1ccccc1 [Example F-17, [3R-[3α,6α(S*),9aβ]]-6-[[(S)-1-Oxo-2-thio-3-phenylpropyl]amino]-octahydro-5-oxothiazol[3,2-a]-azepine-3-carboxylic acid] |  | IC50 [2]: ≥ 10000 nM

— patent US5679671A, “Amino acid derivative” (Eisai Co., Ltd., priority 1993, dated 1997)
